In US9730939B2, “Heterocyclylamines as PI3K inhibitors” (Incyte Corporation, priority 2011, dated 2017):

Biological target: PI3Kδ (p110δ/p85α) (Homo sapiens (Human), UniProt O00329)
Assay: Example A3 PI3Kδ scintillation proximity assay
Format: biochemical
Settings: comparison of compounds 355-358; assay not given
Experimental: PI3Kδ Scintillation Proximity Assay
[γ-^33P]ATP (10 mCi/mL) was purchased from PerkinElmer (Waltham, Mass.). […] PI3Kδ (p110δ/p85α) was purchased from Millipore (Bedford, Mass.). ATP, MgCl2, DTT, EDTA, MOPS and CHAPS were purchased from SigmaAldrich (St. Louis, Mo.). Wheat Germ Agglutinin (WGA) YSi SPA Scintillation Beads was purchased from GE healthcare life sciences (Piscataway, N.J.).
The final concentration of DMSO in the assay was 0.5%. The PI3K assays were carried out at room temperature in 20 mM MOPS, pH 6.7, 10 mM MgCl2, 5 mM DTT and CHAPS 0.03%. Reactions were initiated by the addition of ATP, the final reaction mixture consisted of 20 μM PIP2, 20 μM ATP, 0.2 μCi [γ-^33P]

PI3Kδ (p110δ/p85α), sequence (O00329 whole entry): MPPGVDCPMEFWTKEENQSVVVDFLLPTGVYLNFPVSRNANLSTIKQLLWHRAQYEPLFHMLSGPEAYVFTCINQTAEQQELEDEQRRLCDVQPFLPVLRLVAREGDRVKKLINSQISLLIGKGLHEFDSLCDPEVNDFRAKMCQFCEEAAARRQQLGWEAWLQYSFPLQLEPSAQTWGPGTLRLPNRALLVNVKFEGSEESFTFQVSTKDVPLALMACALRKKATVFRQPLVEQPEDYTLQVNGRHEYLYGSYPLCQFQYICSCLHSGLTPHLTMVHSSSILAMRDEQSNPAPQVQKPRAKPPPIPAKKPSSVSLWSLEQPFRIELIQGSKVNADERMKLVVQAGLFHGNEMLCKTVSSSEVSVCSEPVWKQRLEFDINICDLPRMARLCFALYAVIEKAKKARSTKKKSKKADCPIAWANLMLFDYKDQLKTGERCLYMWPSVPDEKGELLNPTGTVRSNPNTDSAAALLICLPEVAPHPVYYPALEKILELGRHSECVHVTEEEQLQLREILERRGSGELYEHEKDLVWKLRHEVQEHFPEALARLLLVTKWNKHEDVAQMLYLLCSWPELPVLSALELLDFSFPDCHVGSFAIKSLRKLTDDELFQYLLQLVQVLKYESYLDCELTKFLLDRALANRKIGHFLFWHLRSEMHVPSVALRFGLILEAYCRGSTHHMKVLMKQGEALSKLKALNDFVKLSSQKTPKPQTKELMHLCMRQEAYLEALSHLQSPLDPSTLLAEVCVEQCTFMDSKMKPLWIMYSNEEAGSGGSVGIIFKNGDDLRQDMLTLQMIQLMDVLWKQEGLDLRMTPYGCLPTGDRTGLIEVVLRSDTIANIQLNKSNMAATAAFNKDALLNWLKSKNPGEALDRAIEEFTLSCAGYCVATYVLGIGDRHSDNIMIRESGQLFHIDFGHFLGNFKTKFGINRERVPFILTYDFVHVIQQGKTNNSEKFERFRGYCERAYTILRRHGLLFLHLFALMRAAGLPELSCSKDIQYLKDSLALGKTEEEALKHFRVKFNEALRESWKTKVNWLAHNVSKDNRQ
PI3Kδ (p110δ/p85α), sequence (P27986 whole entry partner): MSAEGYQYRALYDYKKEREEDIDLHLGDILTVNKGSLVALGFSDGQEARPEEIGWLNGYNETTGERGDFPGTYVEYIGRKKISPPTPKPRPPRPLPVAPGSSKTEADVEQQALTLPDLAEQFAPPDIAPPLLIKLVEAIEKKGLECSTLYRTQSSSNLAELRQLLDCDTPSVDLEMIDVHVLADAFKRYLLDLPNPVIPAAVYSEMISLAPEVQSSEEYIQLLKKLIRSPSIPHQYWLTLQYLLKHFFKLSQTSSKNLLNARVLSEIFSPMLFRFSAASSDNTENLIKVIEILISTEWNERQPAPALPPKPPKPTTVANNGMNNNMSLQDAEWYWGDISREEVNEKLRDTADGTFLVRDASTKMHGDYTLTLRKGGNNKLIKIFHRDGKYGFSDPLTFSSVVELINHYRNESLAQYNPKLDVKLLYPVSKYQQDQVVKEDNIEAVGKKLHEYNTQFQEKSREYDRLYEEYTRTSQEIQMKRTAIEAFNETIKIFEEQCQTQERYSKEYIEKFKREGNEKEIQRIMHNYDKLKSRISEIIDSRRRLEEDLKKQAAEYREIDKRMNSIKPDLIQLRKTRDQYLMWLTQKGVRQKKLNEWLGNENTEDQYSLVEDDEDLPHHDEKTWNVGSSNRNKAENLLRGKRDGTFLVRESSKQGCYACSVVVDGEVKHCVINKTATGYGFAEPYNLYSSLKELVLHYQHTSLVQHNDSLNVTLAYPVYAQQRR

relative activity of the separated enantiomers (peaks 1-4): most active enantiomer
SMILES: CCOc1c(C(C)n2nc(C)c3c(N)ncnc32)cc(Cl)c(F)c1C1CNC(=O)O1 (single isomer, unassigned) [Example 357, 5-{3-[1-(4-amino-3-methyl-1H-pyrazolo[3,4-d]pyrimidin-1-yl)ethyl]-5-chloro-2-ethoxy-6-fluorophenyl}-1,3-oxazolidin-2-one]
